Tests used:
[1] = test system: in vitro differentiated cardiomyocytes; assay: Cardiotoxic effect of doxorubicin on in vitro differentiated cardiomyocytes; assay type: cell-based, mouse; settings: according to Example 4 of WO2005/005621, FIG. 4
Procedure: (§1) FIGS. 1-4: Effect of different vinca alkaloids (FIGS. 1-3) and doxorubicin (FIG. 4) on the viability and rate of survival of in vitro differentiated cardiomyocytes. EBs were generated and cardiac cells were differentiated as described in Example 1. Photomicrographs were taken before treatment and 48 and 72 hours after treatment. Fluorescent areas representing cardiac cells were measured and calculated as described in Example 2 and 3. Cor.At refers to in vitro differentiated cardiomyocytes and MEF to Mouse Embryonic Fibroblasts.
Thereafter, Example 2, supra, is modified in that doxorubin (doxorubicinhydrochlorid) together with vinblastin, vincristin or vinorelbin is added at different concentrations and reversed dilution series to the cell culture.

[2] = test system: in vitro differentiated cardiomyocytes; assay: Survival of in vitro differentiated cardiomyocytes in embryoid bodies (GFP fluorescent area); assay type: cell-based, mouse; settings: ES cell-derived cardiomyocytes, after 72 hours, fluorescent area compared with before treatment
Procedure: as §1
The generation of “embryoid bodies” (EBs) from high density cell suspensions and differentiation of cardiac cells was essentially performed as described in Example 1 of international application WO2005/005621, the disclosure content of which is hereby incorporated by reference in its entirety. Briefly, mouse embryonic stem cells (ES cells, clone D3, ATCC CRL 1934) were stably transfected with the paMHC-GFP vector containing the gene of the green fluorescent protein under control of the cardiac α-myosin heavy chain (α-MHC) promotor. To obtain this vector, a 5.5 kb fragment containing the promoter region of the mouse α-myosin heavy chain gene (Genbank 471441) was introduced into the polylinker of the pEGFP-1 vector (Clontech Laboratories). […]
To generate EBs, ES cells were cultured in suspension at a density of 2×10^6 cells/ml in a 6 cm petri dish (Greiner, Darmstadt, Germany) in 4 ml IMDM with 20% FCS (Invitrogen, Karlsruhe, Germany) at 37° C., 5% CO2, 95% humidity on a rocking table (GFL 3006, GFL, Braunschweig, Germany) at 50 rpm for 6 hours. […] On day 14, fluorescent areas representing cardiac cells were detected by fluorescence microscopy using a Zeiss Axiovert 200M with a 10x Achroplan objective, a HQ-filterset for GFP (AF Analysentechnik, Tubingen, Germany) and a Sensicam 12 bit cooled imaging system (PCO Imaging, Kelheim, Germany). […]

SMILES	cardiotoxic effect on cardiomyocytes [1]	survival of in vitro differentiated cardiomyocytes [2]
COc1cccc2c1C(=O)c1c(O)c3c(c(O)c1C2=O)C[C@@](O)(C(=O)CO)C[C@@H]3O[C@H]1C[C@H](N)[C@H](O)[C@H](C)O1 [doxorubicin]	cardiotoxic effect	–
CC[C@]1(O)C[C@@H]2CN(CCc3c([nH]c4ccccc34)[C@@](C(=O)OC)(c3cc4c(cc3OC)N(C)[C@H]3[C@@](O)(C(=O)OC)[C@H](OC(C)=O)[C@]5(CC)C=CCN6CC[C@]43[C@@H]65)C2)C1 [vinblastin]	–	increase survival
CC[C@]1(O)C[C@H]2CN(CCc3c([nH]c4ccccc34)[C@@](C(=O)OC)(c3cc4c(cc3OC)N(C=O)[C@H]3[C@@](O)(C(=O)OC)[C@H](OC(C)=O)[C@]5(CC)C=CCN6CC[C@]43[C@@H]65)C2)C1 [vincristin]	–	increase survival
CCC1=C[C@@H]2CN(C1)Cc1c([nH]c3ccccc13)[C@@](C(=O)OC)(c1cc3c(cc1OC)N(C)[C@H]1[C@@](O)(C(=O)OC)[C@H](OC(C)=O)[C@]4(CC)C=CCN5CC[C@]31[C@@H]54)C2 [vinorelbin]	–	increase survival
